# Reference: patent US10980238B2, “Alkali metal salt for use in treatment of varroa destructor mite infestation of honey bees” (Universität Hohenheim, priority 2015, dated 2021)
# Values joined by “and” are separate entries in the source; they are usually repeats but may differ in a detail not shown here. Equal entries are not always repeated.
# Experiments:
# [1] = tested on: bees; settings: 25 mM in 70% sucrose; 50 bees
# Method: (§6) The next set of experiments was carried out in plastic container with 50 bees and 20 mites each. Bees were fed the same amount of unspecific dsRNA that has been used in previous assays in 70% sucrose solution, LiCl at a concentration of 25 mM in 70%, sucrose solution, and 70% sucrose solution only.
# [2] = tested on: Varroa destructor; experiment: Experiment 7 mini-hives (2000 to 3000 bees), semi-field conditions; type: in vivo; settings: remaining mites killed with Perizin and counted
# Method: In order to investigate if the miticidal effect of LiCl can also be detected under semi-field conditions, so-called “mini-hives” consisting of 2000 to 3000 bees each were treated with LiCl.
# LiCl was dissolved in 70% sucrose to final concentrations of 2 mM, 10 mM and 25 mM. Each concentration was replicated 6 times and fed to the bees for 23 days. Dead mites were documented daily. After 23 days of LiCl treatment, remaining mites were killed with Perizin® (commercial product containing the active ingredient coumaphos) and counted (see Table 4 “Remaining mites”).
# [3] = tested on: bees; settings: 50 bees per cage, mean of 6 cages (LiCl) or 3 cages
# Method: (§1) In a further experiment LiCl, NaCl and MgCl2 were selected and their acaricidal activity compared. The experiment was performed in cages of 50 bees, to each of which 25 mites were added. Bees in control cages received sucrose only. LiCl, NaCl or MgCl2 were added to 70% sucrose solutions at a final concentration of 25 mM each and fed to the bees for seven days. Survival rate of bees and mites were monitored daily. Dead bees and mites were removed from the cages.
# (§2) The numbers represent mean values derived from 6 cages. […] Numbers for NaCl, MgCl2 and control represent mean values derived from 3 separate cages.
# [4] = tested on: Varroa destructor; experiment: Experiment 2 cage test (50 bees, 20 mites): dead mites; type: in vivo; settings: 25 mM in 70% sucrose
# Method: as §6
# [5] = tested on: honey bee larvae; experiment: Experiment 8 larval development in vitro; type: in vivo, Apis mellifera
# Method: In order to assess the effect of LiCl on larval development in vitro, larvae were obtained by caging the queen for 24 h on broodless combs in the colony. After 5 to 6 days when the larvae reached the age of about 48 h they were transferred to petri dishes filled with larval food. The petri dishes were placed in plastic boxed filled with 8% sulfuric acid in order to prevent fungi infection and kept in a chamber at 34° C. and 95% relative humidity. The larvae were fed as needed with a mixture consisting of 53% royal jelly, 4% glucose, 8% fructose, 1% yeast extract and water (control). For samples treated with LiCl, 10 mM, 25 mM or 50 mM LiCl were added to the mixture. Prior to the pupa phase, the larvae were placed on a tissue for defecating which occurred approximately on day 9. Afterwards larvae were placed in well plates until hatching. Larvae mortality was monitored on a daily basis.
# [6] = tested on: Varroa mites; experiment: Experiment 5 cage comparison of LiCl, NaCl and MgCl2: dead mites; type: in vivo, Varroa destructor
# Method: as §1, §2
# [7] = tested on: Varroa destructor; experiment: Experiment 9 artificial swarms: mite fall; type: in vivo; settings: 25 mM or 50 mM
# Method: Six artificial swarms were fed with sucrose/LiCl after a starving phase of several hours. LiCl was dissolved in sucrose at final concentrations of 25 mM and 50 mM. Each artificial swarm received 500 ml of the sucrose/LiCl mixture in a feeding balloon. The total volume of sucrose/LiCl solution was consumed by the bees. Mite fall was monitored for 7 days. Afterwards, bees were treated with Perizin® to assess the number of remaining mites.
# [8] = tested on: bees; experiment: Experiment 3 dose response cage test (50 bees, 25 mites): bee survival and health; type: in vivo, Apis mellifera
# Method: (§3) LiCl was added to 70% sucrose solution to final concentrations of 16 μM, 80 μM, 400 μM, 2 mM, 10 mM, 50 Mm, and 250 mM, respectively. 2 ml of the respective solution was fed to the bees, if the sucrose/LiCl solution was entirely ingested additional sucrose syrup was offered ad libidum. Uptake of LiCl solution as well as survival rate of bees and mites was monitored 3 times daily (morning, noon, evening). Additionally, the healthiness of bees was scored based on characteristic behavioral features. LiCl was administered until all mites were dead, and the experiment continued with plain sucrose syrup to record the response of bees over the entire 2 weeks of the experiment. For control bees treated with sucrose syrup only, 9 mites died within the course of the experiment with even timely distribution of the events, indicating natural death of mites. 26 bees died in the same period of time. In view of the life span of a worker bee (4 weeks) this relates to the natural death rate that can be expected in a time span of 14 days. However, 12 bees were lost in a single day equaling almost 50% of the total bee loss in this control experiment. […] For that reasons the sudden loss of bees on day 14 is considered to result from a mistake in bee treatment as feeding inappropriate amounts of sucrose syrup. (See FIG. 4, dotted red line)
# (§4) Additionally, we set out to test activity of a single dose on mite viability. Sucrose with 25 mM LiCl was fed to a cage of 50 bees infested with 25 mites and monitored as described above. […] As such, a single dose of LiCl can be used to kill mites under the described conditions.
# (§5) To explore the upper limit of dosage and limits of tolerability of bees we fed sucrose containing 100 mM of LiCl as only food source over 14 days. […] In view of the latter results the effective window for concentration and administration and regimen of LiCl is sufficiently large to elevate low but effective concentrations (10 mM) more than 10 fold or prolong the time of administration substantially without negative impact on bee health.
# [9] = tested on: Varroa destructor; experiment: Experiment 3 dose response cage test (50 bees, 25 mites): mite survival; type: in vivo
# Method: as §3, §4, §5
# [10] = 25 mM in 70% sucrose for seven days
# [11] = 25 mM in 70% sucrose for seven days, 25 mites per cage, mean of 6 cages (LiCl) or 3 cages
# [12] = 100 mM as only food source over 14 days
# [13] = 250 mM in 70% sucrose, 25 mites
smiles,measurement,setting,value
"[Cl-].[Li+] [LiCl, lithium chloride]",effect on bees within the first 4 days of treatment,[1],not affected
same,Remaining mites,[2]; 2 mM in 70% sucrose for 23 days,234
same,Remaining mites,[2]; 10 mM in 70% sucrose for 23 days,54
same,Remaining mites,[2]; 25 mM in 70% sucrose for 23 days,24
same,"Number of dead bees, Day 1",[3]; [10],0.2
same,"Number of dead bees, Day 2",[3]; [10],0.2
same,"Number of dead bees, Day 3",[3]; [10],0.3
same,"Number of dead bees, Day 4",[3]; [10],0.8
same,"Number of dead bees, Day 5",[3]; [10],0.5
same,"Number of dead bees, Day 6",[3]; [10],1.0
same,"Number of dead bees, Day 7",[3]; [10],0.2
same,"Number of dead bees, Sum","[3]; 25 mM in 70% sucrose, days 1-7",3 and 3.2
same,mites dead after 24 h,[4],4 mites
same,mites dead after 48 h,[4],15 mites
same,mites dead after 72 h,[4],20 mites
same,Survival rate (%) of larvae or pupae,[5]; 10 mM added to larval food,0%
same,time in which all larvae were lost,"[5]; 10 mM, 25 mM or 50 mM added to larval food",≤ 72 h
same,Survival rate (%) of larvae or pupae,[5]; 25 mM added to larval food,0%
same,Survival rate (%) of larvae or pupae,[5]; 50 mM added to larval food,0%
same,acaricidal effect,[6]; [10],strong acaricidal effect
same,"Number of dead mites, Day 1",[6]; [11],0.3
same,"Number of dead mites, Day 2",[6]; [11],2.2
same,"Number of dead mites, Day 3",[6]; [11],19.2
same,"Number of dead mites, Day 4",[6]; [11],3.0
same,"Number of dead mites, Day 5",[6]; [11],0.3
same,"Number of dead mites, Day 6",[6]; [11],0.0
same,"Number of dead mites, Day 7",[6]; [11],0.0
same,"Number of dead mites, Sum","[6]; 25 mM in 70% sucrose, days 1-7, 25 mites per cage, mean of 6 cages (LiCl) or 3 cages",25.0
same,acaricidal efficacies for all six swarms,[7],above 80%
same,tolerance by bees,[8]; 2 mM over a period of 2 weeks,without pronounced decrease in viability
same,bees that survived the treatment,"[8]; 2 mM, 50 bees, 2 weeks",42 bees
same,bees alive at the end of the experiment,"[8]; 10 mM, 50 bees, 2 weeks",34 bees
same,tolerability by the bees,"[8]; 50 mM, 50 bees",good tolerability
same,bees lost in the timespan of the entire experiment,"[8]; 50 mM, 50 bees, 2 weeks",20 bees
same,effect on bees,[8]; [12],time delayed continuous loss of bees
same,average rate of bee loss,"[8]; 250 mM until all mites dead, then sucrose only, 50 bees",3 bees per day
same,bees lost in total,"[8]; 250 mM until all mites dead, then sucrose only, 50 bees, 2 weeks",27 bees
same,impact on bee health,"[8]; single dose of sucrose with 25 mM, entire experiment",no negative impact on bee health
same,mites that survived the treatment,"[9]; 2 mM, 25 mites, 2 weeks",11 mites
same,time in which all mites were killed,"[9]; 10 mM in 70% sucrose, 25 mites",≤ 48 h
same,additional mites found dead at the end of the experiment,"[9]; 10 mM, 25 mites",2 mites
same,"dead mites, day 1","[9]; 10 mM, 25 mites",3 mites
same,"dead mites, day 2","[9]; 10 mM, 25 mites",10 mites
same,"dead mites, day 3","[9]; 10 mM, 25 mites",7 mites
same,"dead mites, day 4","[9]; 10 mM, 25 mites",3 mites
same,time to all mites dead,"[9]; 50 mM in 70% sucrose, 25 mites",48 h
same,effect on mites,[9]; [12],effectively killed
same,mites lost between 30 h and 48 h,[9]; [13],21/25
same,time to loss of all mites,[9]; [13],≤ 48 h
same,impact on viability of mites,"[9]; concentrations lower than 2 mM (16 μM, 80 μM, 400 μM), data not shown",only marginally impacted the viability of mites
same,time to eliminate all mites,[9]; concentrations of 10 mM and higher,≤ 4 days
same,time in which mites were effectively killed,"[9]; single dose of sucrose with 25 mM, 50 bees, 25 mites",≤ 72 h
